Measured values: PubChem BioAssay AID1963446 (Molecular Pharmacology Branch, DTP, NCI, 2024)

System: 993429-296-R-J1-PDC complex spheroid growth, percent test/control
Assay: Anticancer human tumor 993429-296-R-J1-PDC patient-derived uterine sarcoma cell line growth inhibition [Asc]
Settings: for IC50: curve of first compound; for viability, T/C: stronger effect = lower value; active means viability on the fitted dose curve at most 10% of control; inactive means the rest
Method in brief: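 Stromal components (HUVEC and hMSC) are co-assembled with the cancer cells into multicellular spheroids. Drugs are then added singly or paired, at concentrations falling by half-log increments from a clinically achievable maximum, capped at 10 microM without known Cmax.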

[1] = second compound 0.1 µM, first compound 0.0316 µM
[2] = second compound 0.1 µM, first compound 0.1 µM
[3] = second compound 0.1 µM, first compound 0.316 µM
[4] = second compound 0.1 µM, first compound 1 µM
[5] = second compound 0.316 µM, first compound 0.0316 µM
[6] = second compound 0.316 µM, first compound 0.1 µM
[7] = second compound 0.316 µM, first compound 0.316 µM
[8] = second compound 0.316 µM, first compound 1 µM
[9] = second compound 1 µM, first compound 0.0316 µM
[10] = second compound 1 µM, first compound 0.1 µM
[11] = second compound 1 µM, first compound 0.316 µM
[12] = second compound 1 µM, first compound 1 µM
[13] = second compound 3.16 µM, first compound 0.0316 µM
[14] = second compound 3.16 µM, first compound 0.1 µM
[15] = second compound 3.16 µM, first compound 0.316 µM
[16] = second compound 3.16 µM, first compound 1 µM
[17] = second compound 10 µM, first compound 0.0316 µM
[18] = second compound 10 µM, first compound 0.1 µM
[19] = second compound 10 µM, first compound 0.316 µM
[20] = second compound 10 µM, first compound 1 µM
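Further: spheroids exposed to compounds for seven days.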

C#Cc1c(F)ccc2cc(O)cc(-c3ncc4c(N5CC6CCC(C5)N6)nc(OCC56CCCN5CC(F)C6)nc4c3F)c12 (stereo not given) + Cc1c(S(C)(=O)=O)c(-c2cc(F)cc(N3CCN(c4ccc(NS(=O)(=O)c5ccc(NC(CCN6CCC(C(=O)OCCCP(=O)(O)O)CC6)CSc6ccccc6)c(S(=O)(=O)C(F)(F)F)c5)cc4)CC3)c2)c(-c2ccc(Cl)cc2)n1C(C)C
1450 nM: IC50 (second compound 1 µM)
2930 nM: IC50 (second compound 0.1 µM)
2750 nM: IC50 (second compound 10 µM)
active: viability, T/C (second compound 0.1 µM, first compound 10 µM) 2.44% | viability, T/C (second compound 0.316 µM, first compound 10 µM) 1.38% | viability, T/C (second compound 1 µM, first compound 10 µM) 0.37% | viability, T/C (second compound 3.16 µM, first compound 10 µM) 0.32% | viability, T/C (second compound 10 µM, first compound 10 µM) 2.69%
inactive: viability, T/C [1] 70.7% | viability, T/C [2] 69.9% | viability, T/C [3] 64.8% | viability, T/C [4] 67.3% | viability, T/C (second compound 0.1 µM, first compound 3.16 µM) 48.8% | viability, T/C [5] 55.4% | viability, T/C [6] 73.8% | viability, T/C [7] 66.5% | viability, T/C [8] 53.1% | viability, T/C (second compound 0.316 µM, first compound 3.16 µM) 36% | viability, T/C [9] 60.1% | viability, T/C [10] 55.9% | viability, T/C [11] 50.7% | viability, T/C [12] 67.3% | viability, T/C (second compound 1 µM, first compound 3.16 µM) 32% | viability, T/C [13] 53.6% | viability, T/C [14] 45.6% | viability, T/C [15] 45.6% | viability, T/C [16] 36% | viability, T/C (second compound 3.16 µM, first compound 3.16 µM) 33% | viability, T/C [17] 94.9% | viability, T/C [18] 98.8% | viability, T/C [19] 88.1% | viability, T/C [20] 74.5% | viability, T/C (second compound 10 µM, first compound 3.16 µM) 46.9%
< 31.6 nM: IC50 (second compound 3.16 µM)
1410 nM: IC50 (second compound 0.316 µM)

CNC(C)C(=O)NC1CN(S(=O)(=O)c2cccc(S(=O)(=O)N3CCC4CCC(C(=O)NC(c5ccccc5)c5ccccc5)N4C(=O)C(NC(=O)C(C)NC)C3)c2)CCC2CCC(C(=O)NC(c3ccccc3)c3ccccc3)N2C1=O (stereo not given) + Cc1c(S(C)(=O)=O)c(-c2cc(F)cc(N3CCN(c4ccc(NS(=O)(=O)c5ccc(NC(CCN6CCC(C(=O)OCCCP(=O)(O)O)CC6)CSc6ccccc6)c(S(=O)(=O)C(F)(F)F)c5)cc4)CC3)c2)c(-c2ccc(Cl)cc2)n1C(C)C
100 nM: IC50 (second compound 0.316 µM)
inactive: viability, T/C (second compound 0.1 µM, first compound 0.00316 µM) 75.5% | viability, T/C (second compound 0.1 µM, first compound 0.01 µM) 60.4% | viability, T/C [1] 62.1% | viability, T/C [2] 53% | viability, T/C [3] 56% | viability, T/C [4] 45.3% | viability, T/C (second compound 0.316 µM, first compound 0.00316 µM) 59.3% | viability, T/C (second compound 0.316 µM, first compound 0.01 µM) 59.7% | viability, T/C [5] 54.3% | viability, T/C [6] 42% | viability, T/C [7] 54.6% | viability, T/C [8] 41.7% | viability, T/C (second compound 1 µM, first compound 0.00316 µM) 48.9% | viability, T/C (second compound 1 µM, first compound 0.01 µM) 40.8% | viability, T/C [9] 47.4% | viability, T/C [10] 48.9% | viability, T/C [11] 41.6% | viability, T/C [12] 42.8% | viability, T/C (second compound 3.16 µM, first compound 0.00316 µM) 50.2% | viability, T/C (second compound 3.16 µM, first compound 0.01 µM) 39.1% | viability, T/C [13] 29.4% | viability, T/C [14] 30.7% | viability, T/C [15] 34.5% | viability, T/C [16] 24.1% | viability, T/C (second compound 10 µM, first compound 0.00316 µM) 85.5% | viability, T/C (second compound 10 µM, first compound 0.01 µM) 81.9% | viability, T/C [17] 67.5% | viability, T/C [18] 56.8% | viability, T/C [19] 45.5% | viability, T/C [20] 53.5%
901 nM: IC50 (second compound 10 µM)
3.25 nM: IC50 (second compound 3.16 µM)
542 nM: IC50 (second compound 0.1 µM)
< 3.16 nM: IC50 (second compound 1 µM)

Cc1nc(N2CCC3(CC2)COC(C)C3N)c(CO)nc1Sc1ccnc(N)c1Cl (stereo not given) + Cc1c(S(C)(=O)=O)c(-c2cc(F)cc(N3CCN(c4ccc(NS(=O)(=O)c5ccc(NC(CCN6CCC(C(=O)OCCCP(=O)(O)O)CC6)CSc6ccccc6)c(S(=O)(=O)C(F)(F)F)c5)cc4)CC3)c2)c(-c2ccc(Cl)cc2)n1C(C)C
80.2 nM: IC50 (second compound 0.1 µM)
14.6 nM: IC50 (second compound 1 µM)
98.7 nM: IC50 (second compound 10 µM)
active: viability, T/C (second compound 3.16 µM, first compound 3 µM) 8.71%
< 9.49 nM: IC50 (second compound 3.16 µM)
30.5 nM: IC50 (second compound 0.316 µM)
inactive: viability, T/C (second compound 0.1 µM, first compound 0.00949 µM) 71.1% | viability, T/C (second compound 0.1 µM, first compound 0.03 µM) 64.3% | viability, T/C (second compound 0.1 µM, first compound 0.0949 µM) 47.2% | viability, T/C (second compound 0.1 µM, first compound 0.3 µM) 29.7% | viability, T/C (second compound 0.1 µM, first compound 0.949 µM) 18.8% | viability, T/C (second compound 0.1 µM, first compound 3 µM) 17.1% | viability, T/C (second compound 0.316 µM, first compound 0.00949 µM) 60.7% | viability, T/C (second compound 0.316 µM, first compound 0.03 µM) 49.3% | viability, T/C (second compound 0.316 µM, first compound 0.0949 µM) 35.7% | viability, T/C (second compound 0.316 µM, first compound 0.3 µM) 21.9% | viability, T/C (second compound 0.316 µM, first compound 0.949 µM) 14.1% | viability, T/C (second compound 0.316 µM, first compound 3 µM) 14.7% | viability, T/C (second compound 1 µM, first compound 0.00949 µM) 52.2% | viability, T/C (second compound 1 µM, first compound 0.03 µM) 46.3% | viability, T/C (second compound 1 µM, first compound 0.0949 µM) 27% | viability, T/C (second compound 1 µM, first compound 0.3 µM) 14.5% | viability, T/C (second compound 1 µM, first compound 0.949 µM) 14.4% | viability, T/C (second compound 1 µM, first compound 3 µM) 10.1% | viability, T/C (second compound 3.16 µM, first compound 0.00949 µM) 34.6% | viability, T/C (second compound 3.16 µM, first compound 0.03 µM) 29.8% | viability, T/C (second compound 3.16 µM, first compound 0.0949 µM) 33.6% | viability, T/C (second compound 3.16 µM, first compound 0.3 µM) 13.2% | viability, T/C (second compound 3.16 µM, first compound 0.949 µM) 10.8% | viability, T/C (second compound 10 µM, first compound 0.00949 µM) 76.7% | viability, T/C (second compound 10 µM, first compound 0.03 µM) 67.5% | viability, T/C (second compound 10 µM, first compound 0.0949 µM) 51.1% | viability, T/C (second compound 10 µM, first compound 0.3 µM) 29.9% | viability, T/C (second compound 10 µM, first compound 0.949 µM) 14.4% | viability, T/C (second compound 10 µM, first compound 3 µM) 13.8%
